Data taken from US7834049B2, “Integrin expression inhibitor” (Eisai R&D Management Co., Ltd., priority 2000, dated 2010).

Columns and labels:
integrin α3 [1] = assay: Integrin expression inhibitory action on human normal fibroblast cell line WI38; format: cell-based; details: WI38, higher concentration than in Examples 1 and 2 (0.5 μg/ml and 5 μg/ml), 48 hours
integrin α4 = assay: as above; format: cell-based; details: WI38, higher concentration than in Examples 1 and 2 (0.5 μg/ml and 5 μg/ml), 48 hours
integrin β1 [2] = assay: Integrin expression inhibitory action on human colonic cancer cell line HCT116-C9; format: cell-based
integrin α3 [3] = assay: as above; format: cell-based
integrin α6 [4] = assay: as above; format: cell-based
Protocol: [Worded in the source for another cell line; this cell line is reported under the same test.] (§1) Human umbilical venous endothelial cells (HUVEC) of 5×10^5 in number were seeded in a 75 cm^2 cell culture bottle and then cultured using an EGM medium (Sanko Junyaku) at 37° C. in a CO2 incubator. Then, after 3 hours, the EGM medium was exchanged for the same medium including compound A, which was then cultured for further 48 hours. Next, the cells were collected and washed with a bovine serum albumin-containing phosphate buffer solution and the above buffer solution containing various anti-human integrin mouse antibodies was added to the cells and the solution containing cells was allowed to stand at 4° C. for 30 minutes. After washed, FITC connective anti-mouse IgG antibody was added to the cells, which was then allowed to stand for 30 minutes and washed again. Next, the cells were fixed and the amount of antibody connected per cell was measured as the amount of FITC by using a flow cytometer.
(§2) The integrin expression inhibitory action of the compound A on the above cells was examined in the same manner as in Example 1.

integrin αv = assay: Integrin expression inhibitory action on HUVEC (flow cytometer); format: cell-based, human; details: 0.05 μg/ml, 48 hours
Protocol: as §1

integrin α3 [5] = assay: as above; format: cell-based, human; details: 0.05 μg/ml, 48 hours
Protocol: as §1

integrin α2 [6] = assay: as above; format: cell-based, human; details: 0.05 μg/ml, 48 hours
Protocol: as §1

integrin β3 = assay: as above; format: cell-based, human; details: 0.05 μg/ml, 48 hours
Protocol: as §1

integrin β5 = assay: as above; format: cell-based, human; details: 0.05 μg/ml, 48 hours
Protocol: as §1

integrin α6 [7] = assay: as above; format: cell-based, human; details: 0.05 μg/ml, 48 hours
Protocol: as §1

integrin α5 [8] = assay: as above; format: cell-based, human; details: 0.05 μg/ml, 48 hours
Protocol: as §1

integrin β1 [9] = assay: as above; format: cell-based, human; details: 0.05 μg/ml, 48 hours
Protocol: as §1

integrin α2 [10] = assay: Integrin expression inhibitory action on human colonic cancer cell line HCT116-C9; format: cell-based
integrin α1 = assay: Integrin expression inhibitory action on human normal fibroblast cell line WI38; format: cell-based; details: WI38, higher concentration than in Examples 1 and 2 (0.5 μg/ml and 5 μg/ml), 48 hours
[11] = test system: Human umbilical venous endothelial cells (HUVEC); assay: Antiangiogenic effect-2: HUVEC tube formation between collagen layers; format: cell-based; details: 96 h, HUVEC in type I collagen, 10 ng/ml EGF and 20 ng/ml bFGF, cultured 4 days, read-out: IC50, area of the formed tube
Protocol: 0.4 ml of type I collagen was added to a 24-well plate and solidified. Human umbilical venous endothelial cells (HUVEC) of 8×10^4 in number were seeded on the collagen and cultured overnight by using endothelial cells culture solution (Gibco BRL) containing 10 ng/ml EGF and 20 ng/ml bFGF. Next, the supernatant was removed and then 0.4 ml of the same collagen was overlaid. A culture solution containing 1.5 ml of the compound A was further added and the cells were cultured for 4 days. Thereafter, the area of the formed tube was measured quantitatively by image analysis.

integrin β4 = assay: Integrin expression inhibitory action on human colonic cancer cell line HCT116-C9; format: cell-based
[12] = test system: human colic cancer cell strains (WiDr) chamber in C57 Black female mouse; assay: Antiangiogenic effect-3 (in vivo): mouse air capsule method with WiDr chamber; details: dose of 50 mg/kg, orally administered, once a day; measured 4 days after chamber transplantation
Protocol: The above activity was evaluated using a method obtained by improving a mouse air capsule method (Sakamoto et al., Cancer Res., 1, 55-57, 1986) in part. Specifically, a millipore ring (Nippon Millipore) was sealed using a 0.22 μm membrane filter (HAWPO, Nippon Millipore) to form a chamber. 1×10^7 human colic cancer cell strains (WiDr) which were suspended in a phosphoric acid buffer solution were sealed into the chamber. Next, an air capsule was formed on a subcutaneous site of the backside of a C57 Black female mouse of 6 to 8 weeks age and the foregoing chamber was transplanted to the air capsule. The compound A was orally administered after about 6 hours passed after the transplantation was finished and afterwards administered in sequence once a day for 3 days. The erythrocytes of the mouse that was labeled with ^51Cr was injected from the tail vein 4 days after the chamber was transplanted. […] Then, a value obtained by subtracting the amount of blood measured in the case of the chamber including no cancer cell from the above amount of blood was determined as the amount of angiogenesis. […] If the results are evaluated by T/C (%): the amount of angiogenesis of the compound-administered groups/the amount of angiogenesis of the vehicle-administered groups×100, the compound A had such an effect as T/C=53% at a dose of 50 mg/kg.

integrin α5 [13] = assay: Integrin expression inhibitory action on human colonic cancer cell line HCT116-C9; format: cell-based
integrin α2 [14] = assay: Integrin expression inhibitory action on human normal fibroblast cell line WI38; format: cell-based; details: WI38, higher concentration than in Examples 1 and 2 (0.5 μg/ml and 5 μg/ml), 48 hours
Protocol: [Worded in the source for another cell line; this cell line is reported under the same test.] as §1, §2

integrin α6 [15] = assay: as above; format: cell-based; details: WI38, higher concentration than in Examples 1 and 2 (0.5 μg/ml and 5 μg/ml), 48 hours
Protocol: [Worded in the source for another cell line; this cell line is reported under the same test.] as §1, §2

integrin α5 [16] = assay: as above; format: cell-based; details: WI38, higher concentration than in Examples 1 and 2 (0.5 μg/ml and 5 μg/ml), 48 hours
Protocol: [Worded in the source for another cell line; this cell line is reported under the same test.] as §1, §2

integrin β1 [17] = assay: as above; format: cell-based; details: WI38, higher concentration than in Examples 1 and 2 (0.5 μg/ml and 5 μg/ml), 48 hours
Protocol: [Worded in the source for another cell line; this cell line is reported under the same test.] as §1, §2

[18] = HCT116-C9, 0.05 μg/ml, 48 hours

Cc1ccc(NS(=O)(=O)c2cccc(C#N)c2)c2[nH]cc(C#N)c12 [compound A, N-(3-Cyano-4-methyl-1H-indole-7-yl)-3-cyanobenzenesulfonamide]
53%: T/C (%): amount of angiogenesis of compound-administered groups / vehicle-administered groups ×100 [12]
inhibited: expression of integrin β1 (integrin β1 [2]; [18]) | expression of integrin β1 (integrin β1 [2]; HCT116-C9, 0.5 μg/ml) | expression of integrin α3 (integrin α3 [3]; [18]) | expression of integrin α3 (integrin α3 [3]; HCT116-C9, 0.5 μg/ml) | expression of integrin α6 (integrin α6 [4]; [18]) | expression of integrin α6 (integrin α6 [4]; HCT116-C9, 0.5 μg/ml) | expression of integrin αv on the surface of the cell (integrin αv) | expression of integrin α3 on the surface of the cell (integrin α3 [5]) | expression of integrin α2 on the surface of the cell (integrin α2 [6]) | expression of integrin β3 on the surface of the cell (integrin β3) | expression of integrin β5 on the surface of the cell (integrin β5) | expression of integrin α6 on the surface of the cell (integrin α6 [7]) | expression of integrin α5 on the surface of the cell (integrin α5 [8]) | expression of integrin β1 on the surface of the cell (integrin β1 [9]) | expression of integrin α2 (integrin α2 [10]; [18]) | expression of integrin α2 (integrin α2 [10]; HCT116-C9, 0.5 μg/ml) | expression of integrin β4 (integrin β4; [18]) | expression of integrin β4 (integrin β4; HCT116-C9, 0.5 μg/ml) | expression of integrin α5 (integrin α5 [13]; [18]) | expression of integrin α5 (integrin α5 [13]; HCT116-C9, 0.5 μg/ml)
slightly inhibited: expression of integrin α3 (integrin α3 [1]) | expression of integrin α4 (integrin α4) | expression of integrin α2 (integrin α2 [14])
0.12 µg/mL: IC50 [11]
no influence: expression of integrin α1 (integrin α1) | expression of integrin α6 (integrin α6 [15]) | expression of integrin α5 (integrin α5 [16]) | expression of integrin β1 (integrin β1 [17])
